Source: ChEMBL document CHEMBL5390209, “Spinosyn A and Its Derivative Inhibit Colorectal Cancer Cell Growth via the EGFR Pathway” (J Nat Prod, 2023)
Activity calls are given as the source filed them. The calls are words filed in the database; no cut-off is given here.

Assays:
[1] = target: Epidermal growth factor receptor (Homo sapiens) (UniProt P00533); experiment: Inhibition of EGFR phosphorylation in human HT-29 cells incubated for 24 hrs by Western blotting analysis; assay type: cell-based
[2] = Toxicity in human HT-29 cells xenografted Balb/c mouse assessed as change in heart pathology at 5 mg/kg/day, ip administrated for every other day and measured after 28 days; assay type: organism-based; details: in vivo, 672 h, time 28 day
[3] = target: Epidermal growth factor receptor (Homo sapiens) (UniProt P00533); experiment: Inhibition of EGFR in human SW480 cells incubated for 24 hrs by Western blotting analysis; assay type: cell-based
[4] = target: Epidermal growth factor receptor (Homo sapiens) (UniProt P00533); experiment: Inhibition of EGFR phosphorylation in human SW480 cells incubated for 24 hrs by Western blotting analysis; assay type: cell-based
HT-29 [5] = experiment: Inhibition of HER2 in human HT-29 cells xenografted in BALB/c nude mouse assessed as reduction in HER2 protein expression level at 5 mg/kg/day, ip administrated for every other day and measured after 28 days by immunohistochemistry staining based analysis; assay type: functional, organism-based; details: time 28.0 day
[6] = target: Receptor tyrosine-protein kinase erbB-2 (Homo sapiens) (UniProt P04626); experiment: Inhibition of HER2 in human SW480 cells incubated for 24 hrs by Western blotting analysis; assay type: cell-based
SW480 [7] = experiment: Antiproliferative activity against double EGFR/HER2 knockout human SW480 cells assessed as reduction in cell viability incubated for 48 hrs by MTT assay; assay type: functional, cell-based
LoVo = experiment: Antiproliferative activity against human LoVo cells assessed as cell growth inhibition incubated for 48 hrs by MTT assay; assay type: functional, cell-based; details: dose >= 10.0 µM
[8] = target: Epidermal growth factor receptor (Homo sapiens) (UniProt P00533); experiment: Inhibition of EGFR in human HT-29 cells incubated for 24 hrs by Western blotting analysis; assay type: cell-based; details: dose 3.75-15 µM
HT-29 [9] = experiment: Antiproliferative activity against HER2 knockout human HT-29 cells assessed as reduction in cell viability incubated for 48 hrs by MTT assay; assay type: functional, cell-based
HCT-116 = experiment: Antiproliferative activity against human HCT-116 cells assessed as cell growth inhibition incubated for 48 hrs by MTT assay; assay type: functional, cell-based; details: dose >= 10.0 µM
SW480 [10] = experiment: Antiproliferative activity against human SW480 cells assessed as cell growth inhibition incubated for 48 hrs by MTT assay; assay type: functional, cell-based; details: dose >= 10.0 µM
HT-29 [11] = experiment: Antiproliferative activity against double EGFR/HER2 knockout human HT-29 cells assessed as reduction in cell viability incubated for 48 hrs by MTT assay; assay type: functional, cell-based
HT-29 [12] = experiment: Inhibition of EGFR in human HT-29 cells xenografted in BALB/c nude mouse assessed as EGFR protein level in tumor at 5 mg/kg/day, ip administrated for every other day and measured after 28 days by Western blotting analysis; assay type: functional, organism-based; details: time 28.0 day
HT-29 [13] = experiment: Inhibition of colony formation in double EGFR/HER2 knockdown human HT-29 cells at 6 uM incubated for 14 days by crystal violet staining based colony formation assay; assay type: functional, cell-based; details: time 14.0 day
HT-29 [14] = experiment: Inhibition of HER2 in human HT-29 cells xenografted in BALB/c nude mouse assessed as HER2 protein level in tumor at 5 mg/kg/day, ip administrated for every other day and measured after 28 days by Western blotting analysis; assay type: functional, organism-based; details: time 28.0 day
DLD-1 = experiment: Antiproliferative activity against human DLD-1 cells assessed as cell growth inhibition incubated for 48 hrs by MTT assay; assay type: functional, cell-based; details: dose >= 10.0 µM
RKO = experiment: Antiproliferative activity against human RKO cells assessed as cell growth inhibition incubated for 48 hrs by MTT assay; assay type: functional, cell-based
SW-620 = experiment: Antiproliferative activity against human SW620 cells assessed as cell growth inhibition incubated for 48 hrs by MTT assay; assay type: functional, cell-based; details: dose >= 10.0 µM
[15] = target: Receptor tyrosine-protein kinase erbB-2 (Homo sapiens) (UniProt P04626); experiment: Inhibition of HER2 in human HT-29 cells incubated for 24 hrs by Western blotting analysis; assay type: cell-based
HT-29 [16] = experiment: Inhibition of colony formation in HER2 knockdown human HT-29 cells at 6 uM incubated for 14 days by crystal violet staining based colony formation assay; assay type: functional, cell-based; details: time 14.0 day
HT-29 [17] = experiment: Antiproliferative activity against EGFR knockout human HT-29 cells assessed as reduction in cell viability incubated for 48 hrs by MTT assay; assay type: functional, cell-based
HT-29 [18] = experiment: Antiproliferative activity against human HT-29 cells assessed as cell growth inhibition incubated for 48 hrs by MTT assay; assay type: functional, cell-based; details: for IC50: HT-29, 48 h
[19] = target: Epidermal growth factor receptor (Homo sapiens) (UniProt P00533); experiment: Inhibition of EGFR in human HT-29 cells assessed as reduction in MEK1/2 phosphorylation level at 3.75 to 15 uM incubated for 24 hrs by Western blotting analysis; assay type: cell-based; details: dose 3.75-15 µM
HT-29 [20] = experiment: Antitumor activity against human HT-29 cells xenografted Balb/c mouse assessed as reduction in Ki67 expression level at 5 mg/kg/day, ip administrated for every other day and measured after 28 days by immunohistochemistry staining method; assay type: functional, organism-based; details: time 28.0 day
SW480 [21] = experiment: Antiproliferative activity against EGFR knockout human SW480 cells assessed as reduction in cell viability incubated for 48 hrs by MTT assay; assay type: functional, cell-based
[22] = target: Receptor tyrosine-protein kinase erbB-2 (Homo sapiens) (UniProt P04626); experiment: Inhibition of HER2 phosphorylation in human HT-29 cells incubated for 24 hrs by Western blotting analysis; assay type: cell-based
[23] = target: Receptor tyrosine-protein kinase erbB-2 (Homo sapiens) (UniProt P04626); experiment: Inhibition of HER2 phosphorylation in human SW480 cells incubated for 24 hrs by Western blotting analysis; assay type: cell-based
SW480 [24] = experiment: Inhibition of colony formation in double EGFR/HER2 knockdown human SW480 cells at 6 uM incubated for 14 days by crystal violet staining based colony formation assay; assay type: functional, cell-based; details: time 14.0 day
[25] = target: Epidermal growth factor receptor (Homo sapiens) (UniProt P00533); experiment: Inhibition of EGFR in human HT-29 cells assessed as reduction in Erk1/2 phosphorylation level at 0.5 to 2 uM incubated for 24 hrs by Western blotting analysis; assay type: cell-based; details: dose 0.5-2 µM
HT-29 [26] = experiment: Inhibition of EGFR in human HT-29 cells xenografted in BALB/c nude mouse assessed as reduction in EGFR protein expression level at 2.5 mg/kg/day, ip administrated for every other day and measured after 28 days by immunohistochemistry staining based analysis; assay type: functional, organism-based; details: time 28.0 day
HT-29 [27] = experiment: Antitumor activity against human HT-29 cells xenografted Balb/c mouse assessed as reduction in Ki67 expression level at 2.5 mg/kg/day, ip administrated for every other day and measured after 28 days by immunohistochemistry staining method; assay type: functional, organism-based; details: time 28.0 day
[28] = target: Epidermal growth factor receptor (Homo sapiens) (UniProt P00533); experiment: Inhibition of EGFR in human HT-29 cells assessed as reduction in MEK1/2 phosphorylation level at 0.5 to 2 uM incubated for 24 hrs by Western blotting analysis; assay type: cell-based; details: dose 0.5-2 µM
[29] = target: Epidermal growth factor receptor (Homo sapiens) (UniProt P00533); experiment: Inhibition of EGFR in human HT-29 cells assessed as reduction in STAT3 phosphorylation level at 0.5 to 2 uM incubated for 24 hrs by Western blot analysis; assay type: cell-based; details: dose 0.5-2 µM
SW480 [30] = experiment: Inhibition of colony formation in human SW480 cells at 0.75 uM incubated for 14 days by crystal violet staining based colony formation assay; assay type: functional, cell-based; details: time 14.0 day
HT-29 [31] = experiment: Inhibition of HER2 in human HT-29 cells xenografted in BALB/c nude mouse assessed as HER2 protein level in tumor at 2.5 mg/kg/day, ip administrated for every other day and measured after 28 days by Western blotting analysis; assay type: functional, organism-based; details: time 28.0 day
[32] = target: Receptor tyrosine-protein kinase erbB-2 (Homo sapiens) (UniProt P04626); experiment: Inhibition of HER2 in human HT-29 cells at 2 uM by Western blotting analysis; assay type: cell-based; details: time 3-15 hrs, TDE = time-dependent effect
HT-29 [33] = experiment: Inhibition of colony formation in EGFR knockdown human HT-29 cells at 0.75 uM incubated for 14 days by crystal violet staining based colony formation assay; assay type: functional, cell-based; details: time 14.0 day
[34] = Toxicity in human HT-29 cells xenografted Balb/c mouse assessed as change in spleen pathology at 2.5 mg/kg/day, ip administrated for every other day and measured after 28 days; assay type: organism-based; details: in vivo, 672 h, time 28 day

Epidermal growth factor receptor (Homo sapiens), sequence (P00533 whole entry): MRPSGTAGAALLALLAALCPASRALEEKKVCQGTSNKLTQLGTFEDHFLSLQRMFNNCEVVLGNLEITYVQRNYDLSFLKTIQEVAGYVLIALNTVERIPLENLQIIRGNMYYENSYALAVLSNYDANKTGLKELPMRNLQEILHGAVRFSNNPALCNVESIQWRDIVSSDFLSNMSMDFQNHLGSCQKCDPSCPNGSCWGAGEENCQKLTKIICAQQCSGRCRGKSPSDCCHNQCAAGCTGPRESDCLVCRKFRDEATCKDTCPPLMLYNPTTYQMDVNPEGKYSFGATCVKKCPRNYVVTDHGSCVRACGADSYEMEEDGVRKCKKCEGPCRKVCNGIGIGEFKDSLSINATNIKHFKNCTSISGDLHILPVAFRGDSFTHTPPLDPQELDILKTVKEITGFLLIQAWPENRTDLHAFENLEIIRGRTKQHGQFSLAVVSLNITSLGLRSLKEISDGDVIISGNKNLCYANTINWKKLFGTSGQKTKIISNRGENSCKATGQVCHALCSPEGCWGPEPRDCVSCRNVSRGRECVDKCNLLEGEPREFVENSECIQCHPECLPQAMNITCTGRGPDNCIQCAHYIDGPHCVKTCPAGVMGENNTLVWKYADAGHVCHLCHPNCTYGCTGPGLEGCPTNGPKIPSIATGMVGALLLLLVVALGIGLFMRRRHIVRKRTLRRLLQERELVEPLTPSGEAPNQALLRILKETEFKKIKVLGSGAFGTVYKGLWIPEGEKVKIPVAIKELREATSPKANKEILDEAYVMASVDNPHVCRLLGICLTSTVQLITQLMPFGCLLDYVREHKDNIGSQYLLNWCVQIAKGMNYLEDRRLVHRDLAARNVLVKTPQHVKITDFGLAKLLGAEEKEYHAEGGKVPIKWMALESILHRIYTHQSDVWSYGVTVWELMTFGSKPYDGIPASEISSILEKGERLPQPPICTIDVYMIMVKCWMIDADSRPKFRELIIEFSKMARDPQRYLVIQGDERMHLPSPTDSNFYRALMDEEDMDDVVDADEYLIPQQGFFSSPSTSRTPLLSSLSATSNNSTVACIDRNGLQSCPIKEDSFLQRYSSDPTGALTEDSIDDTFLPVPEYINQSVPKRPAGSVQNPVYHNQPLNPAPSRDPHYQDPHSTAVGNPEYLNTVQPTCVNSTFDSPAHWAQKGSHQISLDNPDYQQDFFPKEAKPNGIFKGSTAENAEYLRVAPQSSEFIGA
Receptor tyrosine-protein kinase erbB-2 (Homo sapiens), sequence (P04626 whole entry): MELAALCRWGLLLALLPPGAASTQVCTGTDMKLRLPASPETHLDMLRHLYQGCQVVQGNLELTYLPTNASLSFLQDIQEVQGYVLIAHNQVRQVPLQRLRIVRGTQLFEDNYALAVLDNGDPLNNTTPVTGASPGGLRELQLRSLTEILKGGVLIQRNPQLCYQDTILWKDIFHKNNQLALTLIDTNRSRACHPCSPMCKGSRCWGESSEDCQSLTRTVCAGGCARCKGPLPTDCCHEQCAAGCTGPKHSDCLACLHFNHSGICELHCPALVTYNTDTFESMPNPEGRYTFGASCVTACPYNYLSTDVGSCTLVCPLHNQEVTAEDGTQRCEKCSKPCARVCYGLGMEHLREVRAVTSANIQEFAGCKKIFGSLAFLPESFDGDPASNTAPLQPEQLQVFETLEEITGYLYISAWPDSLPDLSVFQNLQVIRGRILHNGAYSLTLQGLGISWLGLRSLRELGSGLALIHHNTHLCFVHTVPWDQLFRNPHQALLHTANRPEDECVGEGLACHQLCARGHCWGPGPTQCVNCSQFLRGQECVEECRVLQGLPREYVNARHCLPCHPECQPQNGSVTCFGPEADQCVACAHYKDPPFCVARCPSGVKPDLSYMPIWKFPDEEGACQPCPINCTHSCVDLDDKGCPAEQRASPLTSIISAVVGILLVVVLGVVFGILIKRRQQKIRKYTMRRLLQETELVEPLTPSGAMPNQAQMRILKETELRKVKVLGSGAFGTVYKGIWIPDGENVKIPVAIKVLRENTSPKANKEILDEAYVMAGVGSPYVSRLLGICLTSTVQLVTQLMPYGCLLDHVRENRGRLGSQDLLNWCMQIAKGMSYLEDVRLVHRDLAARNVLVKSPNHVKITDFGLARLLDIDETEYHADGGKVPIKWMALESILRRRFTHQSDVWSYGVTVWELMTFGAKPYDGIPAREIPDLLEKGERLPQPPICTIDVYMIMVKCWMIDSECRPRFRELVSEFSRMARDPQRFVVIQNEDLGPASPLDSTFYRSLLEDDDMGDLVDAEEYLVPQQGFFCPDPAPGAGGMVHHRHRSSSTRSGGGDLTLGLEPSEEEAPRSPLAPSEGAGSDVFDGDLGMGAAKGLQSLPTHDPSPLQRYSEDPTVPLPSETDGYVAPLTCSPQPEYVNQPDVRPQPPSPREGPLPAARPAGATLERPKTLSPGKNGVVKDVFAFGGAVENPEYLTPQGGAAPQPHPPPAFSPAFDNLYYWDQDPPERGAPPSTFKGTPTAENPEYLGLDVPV

Row | SMILES | inhibition [1] | inhibition [3] | inhibition [4] | inhibition [6] | Activity (SW480 [7]) | Activity (LoVo) | inhibition [8] | Activity (HT-29 [9]) | Activity (HCT-116) | Activity (SW480 [10]) | Activity (HT-29 [11]) | Activity (DLD-1) | IC50 (RKO) [µM] | Activity (SW-620) | inhibition [15] | Activity (HT-29 [17]) | Activity (HT-29 [18]) | IC50 (HT-29 [18]) [µM] | Activity (SW480 [21]) | inhibition [22] | other results
1 | CC[C@H]1CCC[C@H](O[C@H]2CC[C@H](N(C)C)[C@@H](C)O2)[C@@H](C)C(=O)C2=C[C@@H]3[C@@H](C=C[C@@H]4C[C@@H](O[C@@H]5O[C@@H](C)[C@H](OC)[C@@H](OC)[C@H]5OC)C[C@@H]34)[C@@H]2CC(=O)O1 [SPINOSYN A] | Dose-Dependent Effect | Dose-Dependent Effect | Dose-Dependent Effect | Dose-Dependent Effect | inactive | Dose-Dependent Effect | Dose-Dependent Effect | inactive | Dose-Dependent Effect | Dose-Dependent Effect | inactive | Dose-Dependent Effect | 17 | Dose-Dependent Effect | Dose-Dependent Effect | inactive | Dose-Dependent Effect | 7.3 | inactive | Dose-Dependent Effect | Activity [2]: Non-Toxic; inhibition (HT-29 [5]): Active; inhibition (HT-29 [12]): Active; Activity (HT-29 [13]): inactive; inhibition (HT-29 [14]): Active; Activity (RKO; dose >= 10.0 µM): Dose-Dependent Effect; Activity (HT-29 [16]): inactive; inhibition [19]: Active; Activity (HT-29 [20]): Active; inhibition [23]: Dose-Dependent Effect; Activity (SW480 [24]): inactive
2 | CC[C@H]1CCC[C@H](O[C@H]2CC[C@H](N(C)CC(O)CN3CCNCC3)[C@@H](C)O2)[C@@H](C)C(=O)C2=C[C@@H]3[C@@H](C=C[C@@H]4C[C@@H](O[C@@H]5O[C@@H](C)[C@H](OC)[C@@H](OC)[C@H]5OC)C[C@@H]34)[C@@H]2CC(=O)O1 (stereo partly drawn) | Dose-Dependent Effect | Dose-Dependent Effect | Dose-Dependent Effect | Dose-Dependent Effect | inactive | Dose-Dependent Effect | Dose-Dependent Effect | inactive | Dose-Dependent Effect | Dose-Dependent Effect | inactive | Dose-Dependent Effect | 3.3 | Dose-Dependent Effect | Dose-Dependent Effect | inactive | Dose-Dependent Effect | 0.75 | inactive | Dose-Dependent Effect | inhibition [25]: Active; inhibition (HT-29 [26]): Active; inhibition (RKO; dose >= 10.0 µM): Dose-Dependent Effect; Activity (HT-29 [27]): Active; inhibition [28]: Active; inhibition [29]: Active; inhibition (SW480 [30]): Active; inhibition (HT-29 [31]): Active; inhibition [32]: Tde; Activity (HT-29 [33]): inactive; inhibition [23]: Dose-Dependent Effect; Activity [34]: Non-Toxic
